Earlier results, collected in patent EP2893919B1, “Formulation of aprepitant with enhanced solubility” (SANOFI, priority 2014, dated 2015).

Columns and labels:
[1] = pH range 2 to 10

In the case of `C[C@@H](O[C@H]1OCCN(Cc2n[nH]c(=O)[nH]2)[C@H]1c1ccc(F)cc1)c1cc(C(F)(F)F)cc(C(F)(F)F)c1` [Aprepitant, 5-([(2R,3S)-2-((R)-1-[3,5-bis(trifluoromethyl)phenyl]ethoxy)-3-(4-fluorophenyl)morpholino]methyl)-1H-1,2,4-triazol-3(2H)-one], the Caco-2 permeability (Caco-2) is listed as 7.85 ×10⁻⁶ cm/s and the solubility in water [1] is listed as less than 10 µg/mL.
